From paper PMC9572541, “Design, Synthesis and Biological Evaluation of Novel and Potent Protein Arginine Methyltransferases 5 Inhibitors for Cancer Therapy” (Molecules, 2022)

Experiments:
MV-4-11 cells = experiment: Anti-proliferation CellTiter-Glo assay, MV-4-11; assay type: cell-based; details: Homo sapiens, MV4-11, 12th day
Text: (§1) MV-4-11 and MDA-MB-468 cell lines were used to evaluate the anti-proliferative activities of the selected target compounds (CellTiter-Glo assay), and AML-12 hepatocytes were selected to evaluate the toxicity of the compounds.
(§2) MV-4-11 and MDA-MB-468 cell line were derived from Cell Resources Center of Shanghai Academy of life sciences (Shanghai, China). AML-12 cell line was brough from Nanjing Lixing Biotechnology Co. Ltd. (Nanjing, China). MDA-MB-468 cell line was maintained in Dulbecco’s Modified Eagle Medium (DMEM, KeyGEN Bio) that contained 10% FBS (Biochanel, China), MV-4-11 cell line was maintained in Iscove’s Modified Dulbecco Medium containing; 10% FBS (Biochannel, China), AML-12 cell line was maintained in DMEM/F-12 (1:1) (KeyGEN, China; 1% ITS Liquid Media Supplement (Sigma, America), dexamethasone 40 ng/mL (Sigma, USA) and 10% FBS (Biochannel, China). All cells were grown in a humidified incubator containing 5% carbon dioxide at 37 ℃. All compounds were dispersed in dimethyl sulfoxide (Sigma), the concentration of the reserve solution was 10 mmol/L and the solution was stored in a refrigerator at −20 ℃. SDMA (# 13222S), β- Tubulin (#2146S) and horseradish peroxidase (HRP)-linked secondary antibodies anti-rabbit or anti-mouse IgG were purchased from Cell Signaling Technology (CST), and the anti-PRMT5 (ab109451) antibody was purchased from ABCAM.
(§3) The antiproliferative activities of compounds in vitro were measured by CellTiter-Glo (CTG) assay (Promega, America). In linear/log-phase growth, cultured MV-4-11 cells were split to with seeding density of 2 × 10^5 cells/mL in 1–20 mL of media, depending on the yield required at the end of the growth period. At the conclusion of each treatment period, cells were harvested by centrifugation (4 min, 1000 rpm), and cell pellets were rinsed twice with PBS before being research further processing. Afterwards, cells were plated in 96-well plates with a density of 500 cells/well in […] media. After six hours incubation, compounds treatment was performed. Half of the culture medium was moved and re-plated with fresh media with fresh compound after 6 days. On the 12th day, Cell Titer-Glo Luminescent Cell Viability assays (Promega, USA) were used to determine the viable cell number, and luminescence was recorded using the Envision Multilabel Plate Readers (PerkinElmer). The concentration dependence curves were determined at each time point using GraphPad Prism 8.0 software.

MDA-MB-468 cells = experiment: Anti-proliferation CellTiter-Glo assay, MDA-MB-468; assay type: cell-based; details: Homo sapiens
Text: as §1, §2, §3

PRMT5 = molecular target: T1, PRMT5 (Homo sapiens, UniProt O14744); experiment: Cellular thermal shift assay (CETSA) in MV-4-11 cells; assay type: cell-based
T1 construct: The final concentrations of PRMT5 enzyme: 2.5 nm/L
T1 sequence (O14744 whole entry): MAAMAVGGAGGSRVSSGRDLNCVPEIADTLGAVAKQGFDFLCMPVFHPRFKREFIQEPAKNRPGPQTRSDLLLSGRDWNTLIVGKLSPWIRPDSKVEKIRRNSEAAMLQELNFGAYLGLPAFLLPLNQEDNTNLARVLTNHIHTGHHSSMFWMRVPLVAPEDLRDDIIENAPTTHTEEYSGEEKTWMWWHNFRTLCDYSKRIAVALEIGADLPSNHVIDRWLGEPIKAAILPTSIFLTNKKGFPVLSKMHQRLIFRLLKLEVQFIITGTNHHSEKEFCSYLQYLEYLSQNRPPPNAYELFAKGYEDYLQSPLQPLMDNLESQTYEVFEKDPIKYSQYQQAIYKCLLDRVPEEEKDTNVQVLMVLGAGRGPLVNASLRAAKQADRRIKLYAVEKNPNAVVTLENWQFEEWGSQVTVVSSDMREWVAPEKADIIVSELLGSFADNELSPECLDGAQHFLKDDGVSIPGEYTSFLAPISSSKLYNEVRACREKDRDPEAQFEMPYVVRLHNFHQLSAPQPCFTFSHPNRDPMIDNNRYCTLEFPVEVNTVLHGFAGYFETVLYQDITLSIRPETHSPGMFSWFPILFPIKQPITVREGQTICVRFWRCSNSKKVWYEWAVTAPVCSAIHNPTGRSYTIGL
T1 sequence (Q9BQA1 whole entry partner): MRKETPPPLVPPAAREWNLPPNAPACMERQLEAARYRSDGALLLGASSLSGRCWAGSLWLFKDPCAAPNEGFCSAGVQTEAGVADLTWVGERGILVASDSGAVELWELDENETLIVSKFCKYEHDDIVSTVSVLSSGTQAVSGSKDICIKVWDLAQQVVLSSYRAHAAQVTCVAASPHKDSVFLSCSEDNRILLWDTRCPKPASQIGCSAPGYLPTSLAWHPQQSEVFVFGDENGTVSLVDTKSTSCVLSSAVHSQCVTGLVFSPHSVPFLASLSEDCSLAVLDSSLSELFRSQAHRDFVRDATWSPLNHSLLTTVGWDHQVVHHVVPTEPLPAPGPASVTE
Procedure: The cellular thermal shift assay and the isothermal dose response were run as previously described. Briefly, MV-4-11 cells were collected and centrifugated (4 min, 1000 rpm) and washed twice with PBS. Then the cells were divided three equal parts with seeding density of 1 × 10^6 cells/mL into 60 mm cell culture dish in three mL media. The cell suspension was incubated with DMSO and compounds for 18 h at 37 °C, 5% CO2, and 85% RH.
After incubation, cells were collected and washed twice with PBS. Then they divided the ten parts into transferred thin-walled PCR tubes (0.2 mL, Axygen, Union City, CA, USA) in 50μL PBS. Cells were subjected to 3 min of heat in 96-well thermal cycler (Eppendorf Mastercycler nexus GSX1, Düsseldorf, German) at temperatures of 37, 46, 49, 52, 55, 58, 61, 64, 67 and 70 °C. After heating, cells were left to cool for 3 min and then snap frozen in −80 °C ultra-low temperature freezer overnight. The next day, cells were subjected to 3 rapid freeze thaws with 15 s of vortexing after each thaw. […]
(B) The relative strength of PRMT5 signal on the Western blots was measured by densitometry. […] All data were analyzed using a Boltzmann sigmoidal fit. […]

sDMA [1] = experiment: Western blot of PRMT5 substrate sDMA in MV-4-11 cells; assay type: cell-based; details: 96 h, five-fold concentration gradient
Procedure: Compounds were administered at the expected concentration for the expected time in MV-4-11 cell lines. After being washed twice with PBS, cells were lysed with RIPA buffer, protease inhibitors (PMSF, MCE, New York, NY, USA), and phosphatase cocktails II (MCE, USA) for 1 h. The mixture was centrifuged at 12000 rpm for 15 min. The total protein content was quantified by BCA kit (Beyotime, Shanghai, China). Equivalent proteins were electrophoresed through 8~10% SDS-PAGE and then transferred on to polyvinylidene difluoride membranes (Millipore, Burlington, MA, USA). Subsequently, block the membrane for 1~2 h by 5% (w/v) skim milk (BD, Columbus, OH, USA). Proteins were detected using primary antibodies, followed by HRP-conjugated secondary antibodies, and visualization was performed using ECL (Vazyme Biotech, Beijing, China) as the HRP substrate. The target blots were detected with chemiluminescence system (Tanon, Shanghai, China). The densitometric analysis was performed with Image J software.
Western blot analysis of PRMT5 substrate sDMA, as indicated in MV-4-11 cancer cells treated with the indicated compounds for 96 h. β-Tubulin was used as a loading control. (B) The relative strength of sDMA signal on the Western blots was measured by densitometry. The data are shown as the mean ± SD of three independent experiments.

MV-4-11 xenograft = MV-4-11 xenograft mouse model; assay type: in vivo, BALB/c nude mice; details: 28 days
Procedure: Based on the excellent enzymatic and anti-proliferative activities of compound 20 in vitro, we then evaluated antitumor activities in vivo in an MV-4-11 xenograft mouse model.
Male BALB/c nude mice (6–8 weeks old) were purchased from Hangzhou Medical College. All animals were housed in a specific pathogen-free facility. MV-4-11 cells (5 × 10^6) suspended in 0.2 mL of PBS were inoculated subcutaneously on the right flank of each BALB/c nude mouse. Mice were divided randomly (5 mice for each group) into two treatment groups and a control group when the size of the tumors reached 150 mm^3. […] The tumor volume and body weight were measured every 2 days. The tumor volume was determined with Vernier calipers and calculated as follows: tumor volume = a × b^2/2, where a and b stand for the longest and shortest diameters measured by the vernier caliper, respectively. All animal experiments have been approved by Pharmaceutical Experiment Center of China Pharmaceutical University.
(A) The resulting tumors excised from the animals after treatment. […] (C) The nude mouse body weight was measured every 2 days. (D) The tumor volumes of the nude mice were measured and calculated once every 2 days.

sDMA [2] = experiment: Western blot of sDMA in MV-4-11 xenograft tumors; assay type: in vivo, BALB/c nude mice; details: 10 mg/kg, 28 days
Procedure: Subsequently, we investigated the effects of compound 20 on the expression of the PRMT5 substrate sDMA in vivo (Figure 8). Similarly, the expression of sDMA was decreased after the treatment of compound 20, which was in line with its antitumor activity in vivo.
Tumor tissue was grinded by a cryo-grinder before being lysed with an RIPA buffer, protease inhibitors (PMSF, MCE), and phosphatase cocktails II (MCE). The mixture was centrifuged for 15 min (12,000 rpm). The following steps were the same as with cells.
(A) Western blot analysis of sDMA as indicated in MV-4-11 xenograft tumors treated with the indicated compounds for 28 days. (B) The relative strength of sDMA signal on the Western blots was measured by densitometry. The data are shown as the mean ± SD of three independent experiments. * p < 0.05 vs. control.

How did the GI50 (MV-4-11 cells) turn out when O=C(NC[C@H](O)CN1CCc2ccccc2C1)c1ccc2c(c1)c1c(n2CC2COC2)CCCC1 [Compound 20, (S)-N-(3-(3,4-dihydroisoquinolin-2(1H)-yl)-2-hydroxypropyl)-9-(oxetan-3-ylmethyl)-2,3,4,9-tetrahydro-1H-carbazole-6-carboxamide] was run?
The GI50 was 4.6 ± 0.9 nM.

What about the GI50 (MDA-MB-468 cells) of the same compound?
The GI50 was 9.9 ± 6.8 nM.

And the “PRMT5 melting point increase compared to DMSO vehicle” value (PRMT5; 1 μM, 18 h)?
The value was 7.2 °C.

What about the “Inhibition of PRMT5 degradation at 58 °C” value (PRMT5; isothermal dose response, 58 °C) of the same compound?
The value was “dose-dependent manner”.

And the sDMA protein expression (sDMA [1])?
The sDMA protein expression was “concentration-dependent decrease in sDMA”.

What about the body weight (MV-4-11 xenograft; 10 mg/kg BID) of the same compound?
Its body weight is “no significant weight fluctuations”.

And the tolerability / mortality (MV-4-11 xenograft; 10 mg/kg BID)?
Its tolerability / mortality is “well-tolerated with no mortality”.

What about the TGI (MV-4-11 xenograft; 10 mg/kg, twice daily (BID)) of the same compound?
The TGI was 47.6%.

And the “expression of sDMA in vivo” value (sDMA [2])?
Its value is “decreased”.
